Measured values from the NIST ThermoML archive (doi:10.1016/j.jct.2018.12.021).
± gives the expanded uncertainty stated by the source.

Columns and labels:
[1] = for Normal melting temperature: Crystal, DTA
[2] = mn = molality of the nth substance listed, in mol/kg; details: 303.15 K, Ring tensiometer, m2 = 0

| surface tension liquid-gas [2] [mN/m] | Normal melting temperature [1] [°C] | Structure (SMILES) | further results |
| --- | --- | --- | --- |
|  |  | O [water] | surface tension liquid-gas ([1]; 303.15 K, Liquid, Ring tensiometer): 71.14 ± 2.3 mN/m |
| 71.14 ± 2.3 |  | O [water] + CCCCCCCCCCCC[n+]1ccsc1.[Br-] |  |
|  | 103.16 ± 0.7 | CCCCCCCCCCCC[n+]1cscc1C.[Br-] [N-dodecyl-4-methylthiazolium bromide] |  |
| 71.14 ± 2.3 |  | O [water] + CCCCCCCCCCCC[n+]1cscc1C.[Br-] |  |
|  | 67 ± 0.7 | CCCCCCCCCCCC[n+]1ccsc1.[Br-] [N-dodecylthiazolium bromide] |  |
